Reference: ChEMBL document CHEMBL2311409, “Design, synthesis and biological evaluation of coumarin alkylamines as potent and selective dual binding site inhibitors of acetylcholinesterase” (Bioorg Med Chem, 2013)

Key:
Acetylcholinesterase [1] = biological target: T1, Acetylcholinesterase (Bos taurus, UniProt P23795)
T1 sequence (P23795 whole entry): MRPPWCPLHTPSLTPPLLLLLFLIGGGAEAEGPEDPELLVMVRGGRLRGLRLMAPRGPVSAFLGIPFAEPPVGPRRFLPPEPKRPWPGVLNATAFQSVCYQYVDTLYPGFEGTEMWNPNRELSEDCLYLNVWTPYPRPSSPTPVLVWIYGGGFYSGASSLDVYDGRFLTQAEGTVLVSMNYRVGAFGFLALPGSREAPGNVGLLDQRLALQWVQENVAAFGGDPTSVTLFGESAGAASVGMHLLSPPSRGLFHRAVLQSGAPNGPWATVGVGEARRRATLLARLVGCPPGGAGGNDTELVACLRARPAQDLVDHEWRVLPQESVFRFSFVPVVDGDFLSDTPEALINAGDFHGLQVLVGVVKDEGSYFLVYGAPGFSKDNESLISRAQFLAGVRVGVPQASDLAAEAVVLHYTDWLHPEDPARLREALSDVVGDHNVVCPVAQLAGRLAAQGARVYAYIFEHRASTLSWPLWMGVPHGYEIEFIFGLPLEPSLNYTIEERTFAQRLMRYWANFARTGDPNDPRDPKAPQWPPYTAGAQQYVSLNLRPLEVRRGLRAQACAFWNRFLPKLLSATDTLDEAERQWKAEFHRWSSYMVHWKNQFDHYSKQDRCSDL
Description: Inhibition of bovine acetylcholinesterase using acetylcholine iodide as substrate incubated for 20 mins prior to substrate addition measured after 3 mins by Ellman's method

[2] = biological target: Cholinesterase (Equus caballus) (UniProt P81908); experiment: Inhibition of equine butyrylcholinesterase using butyrylthiocholine as substrate at 10 uM incubated for 20 mins prior to substrate addition measured after 3 mins by Ellman's method
Cholinesterase (Equus caballus), sequence (P81908 whole entry): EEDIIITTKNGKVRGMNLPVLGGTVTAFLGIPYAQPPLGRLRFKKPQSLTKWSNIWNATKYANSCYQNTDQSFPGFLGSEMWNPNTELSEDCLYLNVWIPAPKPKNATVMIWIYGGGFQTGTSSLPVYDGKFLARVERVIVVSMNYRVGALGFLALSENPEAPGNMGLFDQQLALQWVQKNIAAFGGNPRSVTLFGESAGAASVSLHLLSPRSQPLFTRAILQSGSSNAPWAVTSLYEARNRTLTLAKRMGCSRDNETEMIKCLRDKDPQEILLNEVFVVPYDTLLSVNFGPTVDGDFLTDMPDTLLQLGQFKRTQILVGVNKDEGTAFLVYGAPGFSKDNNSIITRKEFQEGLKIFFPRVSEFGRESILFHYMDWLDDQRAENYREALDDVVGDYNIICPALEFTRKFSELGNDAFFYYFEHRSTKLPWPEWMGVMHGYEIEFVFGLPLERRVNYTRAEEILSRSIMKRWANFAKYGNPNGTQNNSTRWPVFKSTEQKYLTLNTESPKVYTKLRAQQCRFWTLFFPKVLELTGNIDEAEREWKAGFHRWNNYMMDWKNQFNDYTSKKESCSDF

Acetylcholinesterase [3] = biological target: Acetylcholinesterase (Homo sapiens, UniProt P22303); experiment: Inhibition of human acetylcholinesterase
Acetylcholinesterase (Homo sapiens, UniProt P22303), sequence (P22303 whole entry): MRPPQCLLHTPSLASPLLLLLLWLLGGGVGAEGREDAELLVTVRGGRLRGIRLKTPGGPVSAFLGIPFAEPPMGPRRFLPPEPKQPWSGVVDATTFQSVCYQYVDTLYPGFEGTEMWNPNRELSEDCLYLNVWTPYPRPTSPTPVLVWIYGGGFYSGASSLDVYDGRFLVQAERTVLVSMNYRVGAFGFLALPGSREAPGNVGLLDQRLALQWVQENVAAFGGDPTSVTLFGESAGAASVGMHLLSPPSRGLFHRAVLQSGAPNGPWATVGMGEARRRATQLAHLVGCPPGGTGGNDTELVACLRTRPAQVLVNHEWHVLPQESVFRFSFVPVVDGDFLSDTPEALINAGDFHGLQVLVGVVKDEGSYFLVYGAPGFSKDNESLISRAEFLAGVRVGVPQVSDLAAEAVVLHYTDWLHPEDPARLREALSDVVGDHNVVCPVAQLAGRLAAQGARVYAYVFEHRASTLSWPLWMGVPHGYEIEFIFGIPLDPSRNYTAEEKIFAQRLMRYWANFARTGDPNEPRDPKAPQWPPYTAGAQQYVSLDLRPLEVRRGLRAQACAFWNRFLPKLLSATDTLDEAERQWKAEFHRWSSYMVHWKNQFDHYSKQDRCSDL

Acetylcholinesterase [4] = biological target: T1, Acetylcholinesterase; experiment: Mixed-type reversible inhibition of bovine acetylcholinesterase using S-acetylthiocholine as substrate incubated for 20 mins prior to substrate addition measured after 3 mins by Lineweaver-Burk plot analysis
Cholinesterase = Cholinesterase (Equus caballus, UniProt P81908)
Cholinesterase, sequence (P81908 whole entry): as the sequence (P81908 whole entry) above
Description: Inhibition of equine butyrylcholinesterase using butyrylthiocholine as substrate incubated for 20 mins prior to substrate addition measured after 3 mins by Ellman's method

Row | Structure (SMILES) | IC50 (Acetylcholinesterase [1]) | inhibition [2] | IC50 (Acetylcholinesterase [3]) | Ki (Acetylcholinesterase [4]) | IC50 (Cholinesterase)
1 | COc1cc2cc(NC(=O)CCN(C)Cc3ccccc3)c(=O)oc2cc1OC | 14 µM | 0% | – | – | –
2 | COc1cc2cc(C(=O)NCCCN(C)Cc3ccccc3)c(=O)oc2cc1OC | 0.086 µM | 24% | – | – | –
3 | COc1cc2cc(C(=O)OC3CCN(Cc4ccccc4)CC3)c(=O)oc2cc1OC | 0.014 µM | 12% | – | – | –
4 | COc1cc2cc(NC(=O)[C@H]3CCC[C@@H](NCc4ccccc4)C3)c(=O)oc2cc1OC (relative stereo) | 0.0076 µM | – | 0.043 µM | 0.0086 µM | 33 µM
5 | CN(CCCOc1cc2ccccc2oc1=O)Cc1ccccc1 | 4.5 µM | – | – | – | 4 µM
6 | COc1cc2cc(C(=O)N3CCN(Cc4ccccc4)CC3)c(=O)oc2cc1OC | 4 µM | 12% | – | – | –
7 | COc1cc2cc(C(=O)NCCCCN(C)Cc3ccccc3)c(=O)oc2cc1OC | 0.021 µM | 23% | – | – | –
8 | COc1cc2cc(NC(=O)CN(C)Cc3ccccc3)c(=O)oc2cc1OC | 26 µM | 11% | – | – | –
9 | COc1cc2cc(OC3CCN(Cc4ccccc4)CC3)c(=O)oc2cc1OC | 1.5 µM | 36% | – | – | –
10 | CN(CCC(=O)Nc1cc2ccccc2oc1=O)Cc1ccccc1 | 66 µM | 0% | – | – | –
11 | COc1cc2cc(C(=O)OCCCN(C)Cc3ccccc3)c(=O)oc2cc1OC | 0.111 µM | 38% | – | – | –
12 | COc1ccc2oc(=O)c(OC3CCN(Cc4ccccc4)CC3)cc2c1 | 7.4 µM | 34% | – | – | –
13 | COc1cc2cc(NC(=O)CCCN(C)Cc3ccccc3)c(=O)oc2cc1OC | 0.33 µM | 43% | – | – | –
14 | COc1cc2cc(C(=O)OCC3CCN(Cc4ccccc4)CC3)c(=O)oc2cc1OC | 0.073 µM | – | – | – | 4.7 µM
15 | COc1ccc2cc(OC3CCN(Cc4ccccc4)CC3)c(=O)oc2c1 | 12 µM | 46% | – | – | –
16 | O=c1oc2ccccc2cc1OC1CCN(Cc2ccccc2)CC1 | 4.5 µM | – | – | – | 7.9 µM
17 | COc1cc2cc(C(=O)NC3CCN(Cc4ccccc4)CC3)c(=O)oc2cc1OC | 0.028 µM | 19% | – | – | –
18 | COc1cc2cc(C(=O)NCCN(C)Cc3ccccc3)c(=O)oc2cc1OC | 9 µM | 15% | – | – | –
19 | COc1cc2cc(OCC3CCN(Cc4ccccc4)CC3)c(=O)oc2cc1OC | 0.021 µM | – | – | – | 3.9 µM
